Measured values as given in US10758534B2 (Vertex Pharmaceuticals Incorporated, priority 2014, dated 2020).
Read-outs that look alike come from different tables or passages of the source.

Molecular target: T1, F508del (Homo sapiens, UniProt P13569, DEL508-508)
T1 construct: expressed in transfected cells
Assay: Protocol 2: FRET membrane potential optical assay (VIPR), identification of correction compounds
Assay type: cell-based
In short: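 NIH3T3 mouse fibroblasts stably expressing F508del-CFTR incubated with compound 16 h at 37 °C in serum-free medium, then loaded with CC2-DMPE/DiSBAC2(3) FRET dyes. Channel activated with 10 μM forskolin plus 20 μM genistein in Cl⁻-free (gluconate) bath; depolarisation from Cl⁻ efflux read on VIPR II.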

[1] = F508del CFTR modulator activity, compounds of Table 1, read-out: EC30
[2] = Table 3, compounds of Table 1 as modulators of CFTR activity, protocol not stated

T1 sequence (P13569 with tags, fused parts or gaps DEL508-508): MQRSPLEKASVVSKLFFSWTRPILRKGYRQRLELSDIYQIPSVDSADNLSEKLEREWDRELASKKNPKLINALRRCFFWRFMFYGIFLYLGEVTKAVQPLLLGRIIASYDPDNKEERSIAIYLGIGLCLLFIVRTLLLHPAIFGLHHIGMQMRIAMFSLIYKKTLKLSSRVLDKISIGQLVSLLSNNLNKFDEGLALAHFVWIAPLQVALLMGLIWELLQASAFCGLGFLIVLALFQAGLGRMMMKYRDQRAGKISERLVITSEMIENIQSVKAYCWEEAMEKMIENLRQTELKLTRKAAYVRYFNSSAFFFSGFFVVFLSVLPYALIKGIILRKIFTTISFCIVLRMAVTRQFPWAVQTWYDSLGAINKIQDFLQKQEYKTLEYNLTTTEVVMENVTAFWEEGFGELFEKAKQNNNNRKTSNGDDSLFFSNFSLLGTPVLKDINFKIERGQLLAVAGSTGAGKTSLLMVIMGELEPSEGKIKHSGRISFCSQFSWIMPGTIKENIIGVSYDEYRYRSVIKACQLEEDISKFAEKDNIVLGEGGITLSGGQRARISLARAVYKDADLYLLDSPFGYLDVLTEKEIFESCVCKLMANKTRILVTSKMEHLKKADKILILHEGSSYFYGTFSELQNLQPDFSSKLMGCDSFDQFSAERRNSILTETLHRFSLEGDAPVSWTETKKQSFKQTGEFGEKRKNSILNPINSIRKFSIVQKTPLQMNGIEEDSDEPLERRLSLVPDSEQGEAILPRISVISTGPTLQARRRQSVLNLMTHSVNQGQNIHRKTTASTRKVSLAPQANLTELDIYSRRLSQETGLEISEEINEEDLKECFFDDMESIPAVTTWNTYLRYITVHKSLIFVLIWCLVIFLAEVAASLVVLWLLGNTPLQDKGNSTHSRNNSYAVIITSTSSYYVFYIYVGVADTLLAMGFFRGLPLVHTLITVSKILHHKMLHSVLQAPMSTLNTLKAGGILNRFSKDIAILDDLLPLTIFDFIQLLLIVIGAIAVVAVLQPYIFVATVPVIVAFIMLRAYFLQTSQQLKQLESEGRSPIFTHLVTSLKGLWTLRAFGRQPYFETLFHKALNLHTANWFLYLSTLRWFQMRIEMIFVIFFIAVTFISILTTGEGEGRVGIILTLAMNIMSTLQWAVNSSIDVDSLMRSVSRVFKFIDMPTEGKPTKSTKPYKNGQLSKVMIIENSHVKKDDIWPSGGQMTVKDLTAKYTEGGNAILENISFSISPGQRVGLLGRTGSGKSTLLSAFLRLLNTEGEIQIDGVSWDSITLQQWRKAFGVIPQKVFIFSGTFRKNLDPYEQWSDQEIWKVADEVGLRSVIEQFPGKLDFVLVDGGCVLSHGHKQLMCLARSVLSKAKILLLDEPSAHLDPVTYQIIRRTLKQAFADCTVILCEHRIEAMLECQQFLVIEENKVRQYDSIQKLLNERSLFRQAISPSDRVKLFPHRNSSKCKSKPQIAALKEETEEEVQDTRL

Row | EC30 [1] [nM] | EC30 [2] | Structure (SMILES)
1 | < 3000 |  | Cc1ccc2cccc(Oc3cccc(S(=O)(=O)NC(=O)c4cccnc4N4CC(C)CC4(C)C)n3)c2n1 (stereo not drawn) [Compound 2643, N—[[6-[(2-methyl-8-quinolyl)oxy]-2-pyridyl]sulfonyl]-2-(2,2,4-trimethylpyrrolidin-1-yl)pyridine-3-carboxamide]
2 | < 3000 |  | C[C@@H]1CN(c2nc(-c3ccc4c(c3)OCCO4)ccc2C(=O)NS(=O)(=O)c2cccnc2N)C(C)(C)C1 [Compound 2522, N-[(2-amino-3-pyridyl)sulfonyl]-6-(2,3-dihydro-1,4-benzodioxin-6-yl)-2-[(4S)-2,2,4-trimethylpyrrolidin-1-yl]pyridine-3-carboxamide]
3 |  | + (“+” means greater than 10 uM) | COc1ncc(-c2ccc(C(=O)NS(=O)(=O)c3cccc(N)n3)c(Oc3c(C)cc(C)cc3C)n2)cn1 [Compound 449, N-[(6-amino-2-pyridyl)sulfonyl]-6-(2-methoxypyrimidin-5-yl)-2-(2,4,6-trimethylphenoxy)pyridine-3-carboxamide]
4 | < 3000 |  | Cc1cc(-c2ccc(C(=O)NS(=O)(=O)c3cccc(N)n3)c(N3C[C@@H](C)CC3(C)C)n2)cnc1OC(C)C [Compound 2170, N-[(6-amino-2-pyridyl)sulfonyl]-6-(6-isopropoxy-5-methyl-3-pyridyl)-2-[(4S)-2,2,4-trimethylpyrrolidin-1-yl]pyridine-3-carboxamide]
5 |  | ++ (“++” means between 3 uM and 10 uM) | C[C@@H]1CC[C@H](C)N1c1nc(C(C)(C)C)ccc1C(=O)NS(=O)(=O)c1cccc(N)n1 [Compound 373, N-[(6-amino-2-pyridyl)sulfonyl]-6-tert-butyl-2-[(2S,5R)-2,5-dimethylpyrrolidin-1-yl]pyridine-3-carboxamide]
6 |  | ++ (“++” means between 3 uM and 10 uM) | Cc1cc(C)c(Oc2nc(NC(C)C)ccc2C(=O)NS(=O)(=O)c2cccc(N)n2)c(C)c1 [Compound 650, N-[(6-amino-2-pyridyl)sulfonyl]-6-(isopropylamino)-2-(2,4,6-trimethylphenoxy)pyridine-3-carboxamide]
7 |  | +++ (“+++” means <3 uM) | CC(C)Oc1ccc(-c2ccc(C(=O)NS(=O)(=O)c3cccc(N)n3)c(N3CCCC(c4ccc(F)c(F)c4)C3)n2)cn1 (stereo not drawn) [Compound 558, N-[(6-amino-2-pyridyl)sulfonyl]-2-[3-(3,4-difluorophenyl)-1-piperidyl]-6-(6-isopropoxy-3-pyridyl)pyridine-3-carboxamide]
8 |  | +++ (“+++” means <3 uM) | Cc1cc(C)c(Oc2nc(-c3cnc(N4CCCCC4)nc3)ccc2C(=O)NS(=O)(=O)c2cccc(N)n2)c(C)c1 [Compound 475, N-[(6-amino-2-pyridyl)sulfonyl]-6-[12-(1-piperidyl)pyrimidin-5-yl]-2-(2,4,6-trimethylphenoxy)pyridine-3-carboxamide]
9 |  | +++ (“+++” means <3 uM) | CCOc1cc(F)cc(-c2ccc(C(=O)NS(=O)(=O)c3cccc(N)n3)c(N3[C@H](C)CC[C@@H]3C)n2)c1 [Compound 551, N-[(6-amino-2-pyridyl)sulfonyl]-2-[(2R,5S)-2,5-dimethylpyrrolidin-1-yl]-6-(3-ethoxy-5-fluoro-phenyl)pyridine-3-carboxamide]
10 | < 3000 |  | COc1cc(OC)cc(Oc2cccc(S(=O)(=O)NC(=O)c3cccnc3N3CC(C)CC3(C)C)n2)c1 (stereo not drawn) [Compound 2293, N—[[6-(3,5-dimethoxyphenoxy)-2-pyridyl]sulfonyl]-2-(2,2,4-trimethylpyrrolidin-1-yl)pyridine-3-carboxamide]
11 |  | +++ (“+++” means <3 uM) | Cc1cccc(C)c1Cn1nc(C2CC3CCC2C3)cc1C(=O)NS(=O)(=O)c1cccc(N)c1 (stereo not drawn) [Compound 370, N-(3-aminophenyl)sulfonyl-2-[(2,6-dimethylphenyl)methyl]-5-norbornan-2-yl-pyrazole-3-carboxamide]
12 |  | +++ (“+++” means <3 uM) | Cc1ccccc1Oc1nc(C(C)(C)C)ccc1C(=O)NS(=O)(=O)c1cccc(N)c1 [Compound 296, N-(3-aminophenyl)sulfonyl-6-tert-butyl-2-(2-methylphenoxy)pyridine-3-carboxamide]
13 | 3000 to 10000 |  | CC1CN(c2ncccc2C(=O)NS(=O)(=O)c2cccc(N3Cc4ccccc4C[C@H]3C(=O)O)n2)C(C)(C)C1 (stereo partly drawn) [Compound 2321, (3S)-2-[6-[[2-(2,2,4-trimethylpyrrolidin-1-yl)pyridine-3-carbonyl]sulfamoyl]-2-pyridyl]-3,4-dihydro-1H-isoquinoline-3-carboxylic acid]
14 | < 3000 |  | C[C@@H]1CN(c2nc(-c3ccc(C(F)F)cc3)ccc2C(=O)NS(=O)(=O)c2cccnc2N)C(C)(C)C1 [Compound 2644, N-[(2-amino-3-pyridyl)sulfonyl]-6-[4-(difluoromethyl)phenyl]-2-[(4S)-2,2,4-trimethylpyrrolidin-1-yl]pyridine-3-carboxamide]
15 | < 3000 |  | Cc1cccc(Oc2cccc(S(=O)(=O)NC(=O)c3cccnc3N3CC(C)CC3(C)C)n2)c1 (stereo not drawn) [Compound 2320, N—[[6-(3-methylphenoxy)-2-pyridyl]sulfonyl]-2-(2,2,4-trimethylpyrrolidin-1-yl)pyridine-3-carboxamide]
16 |  | +++ (“+++” means <3 uM) | Cc1cc(C)c(Oc2nc(-c3ccccc3)ccc2C(=O)NS(=O)(=O)c2cccc(N)c2)c(C)c1 [Compound 231, N-(3-aminophenyl)sulfonyl-6-phenyl-2-(2,4,6-trimethylphenoxy)pyridine-3-carboxamide]
17 |  | +++ (“+++” means <3 uM) | Cc1cc(C)c(Oc2nc(-c3ccc(F)c(F)c3)ccc2C(=O)NS(=O)(=O)c2cccc(N)n2)c(C)c1 [Compound 725, N-[(6-amino-2-pyridyl)sulfonyl]-6-(3,4-difluorophenyl)-2-(2,4,6-trimethylphenoxy)pyridine-3-carboxamide]
18 | < 3000 |  | CCOc1cccc(-c2ccc(C(=O)NS(=O)(=O)c3ccc[nH]c3=O)c(N3C[C@@H](C)CC3(C)C)n2)c1 [Compound 2235, 6-(3-ethoxyphenyl)-N-[(2-oxo-1H-pyridin-3-yl)sulfonyl]-2-[(4S)-2,2,4-trimethylpyrrolidin-1-yl]pyridine-3-carboxamide]
19 | < 3000 |  | COc1ccccc1-c1ccc(C(=O)NS(=O)(=O)c2ccc[nH]c2=O)c(N2C[C@@H](C)CC2(C)C)n1 [Compound 2485, 6-(2-methoxyphenyl)-N-[(2-oxo-1H-pyridin-3-yl)sulfonyl]-2-[(4S)-2,2,4-trimethylpyrrolidin-1-yl]pyridine-3-carboxamide]
20 |  | +++ (“+++” means <3 uM) | Cc1cc(C)c(Oc2nc(C(F)(F)F)ccc2C(=O)NS(=O)(=O)c2ccccc2)c(C)c1 [Compound 244, N-(benzenesulfonyl)-6-(trifluoromethyl)-2-(2,4,6-trimethylphenoxy)pyridine-3-carboxamide]
21 |  | +++ (“+++” means <3 uM) | Cc1cc(C)c(Oc2nc(C(C)(C)C)ccc2C(=O)NS(=O)(=O)c2ccccc2O)c(C)c1 [Compound 131, 6-tert-butyl-N-(2-hydroxyphenyl)sulfonyl-2-(2,4,6-trimethylphenoxy)pyridine-3-carboxamide]
22 |  | +++ (“+++” means <3 uM) | CC(C)(C)c1ccc(C(=O)NS(=O)(=O)c2ccccc2)c(OCc2ccccc2)n1 [Compound 130, N-(benzenesulfonyl)-2-benzyloxy-6-tert-butyl-pyridine-3-carboxamide]
23 | 3000 to 10000 |  | CC1CN(c2ncccc2C(=O)NS(=O)(=O)c2cccc(OCC3CCOC3)n2)C(C)(C)C1 (stereo not drawn) [Compound 2396, N—[[6-(tetrahydrofuran-3-ylmethoxy)-2-pyridyl]sulfonyl]-2-(2,2,4-trimethylpyrrolidin-1-yl)pyridine-3-carboxamide]
24 |  | +++ (“+++” means <3 uM) | Cc1cc(C)c(Cn2nc(C(C)(C)C)cc2C(=O)NS(=O)(=O)c2cccc(O)c2)c(C)c1 [Compound 84, 5-tert-butyl-N-(3-hydroxyphenyl)sulfonyl-2-[(2,4,6-trimethylphenyl)methyl]pyrazole-3-carboxamide]

Row | Structure (SMILES) | EC30 [1] [nM] | EC30 [2]
25 | CC(C)COc1ccc(-c2ccc(C(=O)NS(=O)(=O)c3cccc(N)n3)c(N3CC(C)CC3(C)C)n2)cn1 (stereo not drawn) [Compound 471, N-[(6-amino-2-pyridyl)sulfonyl]-6-(6-isobutoxy-3-pyridyl)-2-(2,2,4-trimethylpyrrolidin-1-yl)pyridine-3-carboxamide] |  | +++ (“+++” means <3 uM)
26 | CC(C)COc1cc(F)cc(-c2ccc(C(=O)NS(=O)(=O)c3ccn[nH]3)c(N3C[C@H](C)C[C@H](C)C3)n2)c1 [Compound 642, 2-[(3R,5S)-3,5-dimethyl-1-piperidyl]-6-(3-fluoro-5-isobutoxy-phenyl)-N-(1H-pyrazol-5-ylsulfonyl)pyridine-3-carboxamide] |  | +++ (“+++” means <3 uM)
27 | CC(C)COc1cc(F)cc(-c2ccc(C(=O)NS(=O)(=O)c3cccc(N)n3)c(N(C)C(C)C3CC3)n2)c1 (stereo not drawn) [Compound 516, N-[(6-amino-2-pyridyl)sulfonyl]-2-[1-cyclopropylethyl(methyl)amino]-6-(3-fluoro-5-isobutoxy-phenyl)pyridine-3-carboxamide] |  | +++ (“+++” means <3 uM)
28 | CC(C)COc1cc(F)cc(-c2ccc(C(=O)NS(=O)(=O)c3cccc(N)n3)c(N3CCCCC3)n2)c1 [Compound 380, N-[(6-amino-2-pyridyl)sulfonyl]-6-(3-fluoro-5-isobutoxy-phenyl)-2-(1-piperidyl)pyridine-3-carboxamide] |  | +++ (“+++” means <3 uM)
29 | CC(C)COc1cc(F)cc(-c2ccc(C(=O)NS(=O)(=O)c3cccc(N)n3)c(N3CCC[C@@H](c4ccccc4)C3)n2)c1 [Compound 684, N-[(6-amino-2-pyridyl)sulfonyl]-6-(3-fluoro-5-isobutoxy-phenyl)-2-[(3S)-3-phenyl-1-piperidyl]pyridine-3-carboxamide] |  | +++ (“+++” means <3 uM)
30 | CC(C)COc1cc(F)cc(-c2ccc(C(=O)NS(=O)(=O)c3ccn[nH]3)c(N3CCC(C(F)(F)F)CC3)n2)c1 [Compound 426, 6-(3-fluoro-5-isobutoxy-phenyl)-N-(1H-pyrazol-5-ylsulfonyl)-2-[14-(trifluoromethyl)-1-piperidyl]pyridine-3-carboxamide] |  | +++ (“+++” means <3 uM)
